Reference: patent publication US5700804A, “Pharmaceutical compounds” (Xenova Limited, priority 1992, dated 1997)
Where a name gives a salt, the structure may show the parent alone.

Target: PAI-1 (Homo sapiens, UniProt P05121)
Experiment: PAI chromogenic substrate assay (first S2251 assay, tPA/plasminogen system)
Format: biochemical
Summary of the method: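 Compound preincubated with PAI-1, then added to a tPA/plasminogen system; residual tPA activity generates plasmin, which cleaves chromogenic substrate S2251, releasing p-nitroaniline read at 405 nm.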

PAI-1, sequence (P05121 24-402): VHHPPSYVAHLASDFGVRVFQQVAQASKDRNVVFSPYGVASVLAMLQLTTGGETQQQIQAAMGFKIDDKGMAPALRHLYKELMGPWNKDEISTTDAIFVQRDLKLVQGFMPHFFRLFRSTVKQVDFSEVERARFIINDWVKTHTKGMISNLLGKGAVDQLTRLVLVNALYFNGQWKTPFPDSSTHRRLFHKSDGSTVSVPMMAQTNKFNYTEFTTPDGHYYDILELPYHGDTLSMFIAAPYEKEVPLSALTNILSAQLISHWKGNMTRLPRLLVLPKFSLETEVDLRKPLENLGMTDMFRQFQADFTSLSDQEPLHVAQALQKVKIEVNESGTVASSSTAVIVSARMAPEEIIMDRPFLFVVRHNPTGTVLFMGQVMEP

Row | Structure (SMILES) | Inhibition of PAI-1 in the first S2251 chromogenic substrate assay (Concentration 12.5 μm) [%] | Inhibition of PAI-1 in the first S2251 chromogenic substrate assay (Concentration 25 μm) [%] | Inhibition of PAI-1 in the first S2251 chromogenic substrate assay (Concentration 50 μm) [%] | Inhibition of PAI-1 in the first S2251 chromogenic substrate assay (Concentration 100 μm) [%] | Inhibition of PAI-1 in the first S2251 chromogenic substrate assay (Concentration 6.25 μm) [%] | Inhibition of PAI-1 in the first S2251 chromogenic substrate assay (Concentration 2.5 μm) [%] | Inhibition of PAI-1 in the first S2251 chromogenic substrate assay (Concentration 5 μm) [%] | Inhibition of PAI-1 in the first S2251 chromogenic substrate assay (Concentration 10 μm) [%] | Inhibition of PAI-1 in the first S2251 chromogenic substrate assay (Concentration 20 μm) [%] | Inhibition of PAI-1 in the first S2251 chromogenic substrate assay (Concentration 40 μm) [%]
1 | COC(=O)Nc1ccc(/C=c2\[nH]c(=O)/c(=C/c3ccc(OC)cc3)[nH]c2=O)cc1 [Compound 83, (3Z,6Z)-3-(4-Methoxybenzylidene)-6-(4-methoxycarbonylaminobenzylidene)-2,5-piperazinedione] | 1 | 1 | 1 | 56 |  |  |  |  |  | 
2 | COc1ccc(/C=c2\[nH]c(=O)/c(=C/c3ccc(O)cc3Cl)[nH]c2=O)cc1 [Compound 84, (3Z,6Z)-3-(2-Chloro-4-hydroxybenzylidene)-6-(4-methoxybenzylidene)-2,5-piperazinedione] | 2 | 10 | 38 | 52 | 1 |  |  |  |  | 
3 | O=c1[nH]/c(=C\c2ccc(O)cc2Cl)c(=O)[nH]/c1=C\c1ccccc1 [Compound 85, (3Z,6Z)-6-Benzylidene-3-(2-chloro-4-hydroxybenzylidene)-2,5-piperazinedione] | 27 | 43 | 49 | 35 | 13 |  |  |  |  | 
4 | CC(=O)Nc1ccc(/C=c2\[nH]c(=O)/c(=C/c3ccc(N(C)C)cc3)[nH]c2=O)cc1 [Compound 86, (3Z,6Z)-3-(4-Acetamidobenzylidene)-6-(4-dimethylaminobenzylidene)-2,5-piperazinedione] | 41 | 48 | 37 | 23 | 31 |  |  |  |  | 
5 | COc1ccc(/C=c2\[nH]c(=O)/c(=C/c3ccc(NC(=O)COC(C)=O)cc3)[nH]c2=O)cc1 [Compound 87, (3Z,6Z)-3-(4-Acetoxyacetylaminobenzylidene)-6-(4-methoxybenzylidene)-2,5-piperazinedione] | 28 | 70 | 81 | 78 | 0 |  |  |  |  | 
6 | COc1ccc(/C=c2\[nH]c(=O)/c(=C/c3ccc(NC(=O)CO)cc3)[nH]c2=O)cc1 [Compound 88, (3Z,6Z)-3-(4-Hydroxyacetylaminobenzylidene)-6-(4-methoxybenzylidene)-2,5-piperazinedione] | 40 | 60 | 49 | 41 | 0 |  |  |  |  | 
7 | CN(C)c1ccc(/C=c2\[nH]c(=O)/c(=C/c3ccccc3)[nH]c2=O)c2ccccc12 [Compound 89] | 40 | 66 | 55 | 63 | 7 |  |  |  |  | 
8 | COc1ccc(/C=c2\[nH]c(=O)/c(=C/c3ccccc3)[nH]c2=O)cc1OC [Compound 90, (3Z,6Z)-6-Benzylidene-3-(3,4-dimethoxybenzylidene)-2,5-piperazinedione] | 6 | 33 | 85 | 75 | 0 |  |  |  |  | 
9 | COc1ccc(/C=c2\[nH]c(=O)/c(=C/c3ccc(OC)c(OC)c3)[nH]c2=O)cc1 [Compound 91, (3Z,6Z)-3-(3,4-Dimethoxybenzylidene)-6-(4-methoxybenzylidene)-2,5-piperazinedione] | 0 | 3 | 72 | 50 | 0 |  |  |  |  | 
10 | COc1ccc(/C=c2\[nH]c(=O)/c(=C/c3ccc(NC(C)=O)cc3)[nH]c2=O)cc1OC [Compound 92] | 12 | 38 | 44 | 86 | 17 |  |  |  |  | 

More lines, now with the values ahead:

Row | Inhibition of PAI-1 in the first S2251 chromogenic substrate assay (Concentration 12.5 μm) [%] | Inhibition of PAI-1 in the first S2251 chromogenic substrate assay (Concentration 25 μm) [%] | Inhibition of PAI-1 in the first S2251 chromogenic substrate assay (Concentration 50 μm) [%] | Inhibition of PAI-1 in the first S2251 chromogenic substrate assay (Concentration 100 μm) [%] | Inhibition of PAI-1 in the first S2251 chromogenic substrate assay (Concentration 6.25 μm) [%] | Inhibition of PAI-1 in the first S2251 chromogenic substrate assay (Concentration 2.5 μm) [%] | Inhibition of PAI-1 in the first S2251 chromogenic substrate assay (Concentration 5 μm) [%] | Inhibition of PAI-1 in the first S2251 chromogenic substrate assay (Concentration 10 μm) [%] | Inhibition of PAI-1 in the first S2251 chromogenic substrate assay (Concentration 20 μm) [%] | Inhibition of PAI-1 in the first S2251 chromogenic substrate assay (Concentration 40 μm) [%] | Structure (SMILES)
11 | 7 | 39 | 68 | 91 | 2 |  |  |  |  |  | COC(=O)COc1ccc(/C=c2\[nH]c(=O)/c(=C/c3ccccc3)[nH]c2=O)cc1 [Compound 93, 4-[(3Z,6Z)-6-Benzylidene-2,5-dioxopiperazin-3-ylidene]methylphenoxyacetic acid, methyl ester]
12 | 76 | 83 | 62 | 31 | 43 |  |  |  |  |  | COC(=O)CCCC(=O)NCc1ccc(/C=c2\[nH]c(=O)/c(=C/c3ccccc3)[nH]c2=O)cc1 [Compound 94, 4-(4-[(3Z,6Z)-6-Benzylidene-2,5-dioxopiperazin-3-ylidene]methylbenzylcarbamoyl) butanoic acid, methyl ester]
13 | 16 | 45 | 71 | 69 | 10 |  |  |  |  |  | CCOC(=O)CCCCC(=O)NCc1ccc(/C=c2\[nH]c(=O)/c(=C/c3ccccc3)[nH]c2=O)cc1 [Compound 95]
14 | 29 | 47 | 75 | 77 | 5 |  |  |  |  |  | COC(=O)CCCCOc1ccc(/C=c2\[nH]c(=O)/c(=C/c3ccccc3)[nH]c2=O)cc1 [Compound 96, 5-[4-((3Z,6Z)-6-Benzylidene-2,5-dioxopiperazin-3-ylidene)methylphenoxy]pentanoic acid, methyl ester]
15 | 0 | 73 | 24 | 0 | 0 |  |  |  |  |  | O=C(O)CCCCOc1ccc(/C=c2\[nH]c(=O)/c(=C/c3ccccc3)[nH]c2=O)cc1 [Compound 97, 5-[4-((3Z,6Z)-6-Benzylidene-2,5-dioxopiperazin-3-ylidene)methylphenoxy]pentanoic acid]
16 | 67 | 74 | 71 | 72 | 4 |  |  |  |  |  | CN(C)CCCOc1ccc(/C=c2\[nH]c(=O)/c(=C/c3ccccc3)[nH]c2=O)cc1 [Compound 98]
17 |  |  |  |  |  | 0 | 0 | 17 | 48 | 68 | CN(C)CCOc1ccc(/C=c2\[nH]c(=O)/c(=C/c3ccccc3)[nH]c2=O)cc1 [Compound 99, (3Z,6Z)-6-Benzylidene-3-(4-(2-N,N-dimethylaminoethoxy)benzylidene)-2,5-piperazinedione, hydrochloride]
